# The PolyMetriX glass transition set
# ± gives the standard deviation of the reports.
row,SMILES,glass transition temperature
1,*C(=O)OCCCCCCCCCCOC(=O)c1ccc(N2C(=O)c3ccc(*)cc3C2=O)cc1 (repeat unit),58.00 °C
2,*Oc1ccc(Oc2ccc(C(=O)c3ccc(*)cc3)cc2)cc1-c1cccc(C(F)(F)F)c1 (repeat unit),134.00 °C
3,*CC/C=C(/*)c1ccccc1 (repeat unit),39.50 °C
4,*c1ccc(Oc2ccc(Sc3ccc(Oc4ccc(N5C(=O)c6ccc(Oc7ccc(-c8ccc(Oc9ccc%10c(c9)C(=O)N(*)C%10=O)cc8)cc7)cc6C5=O)cc4)cc3)cc2)cc1 (repeat unit),206.00 °C
5,*c1cccc(N2C(=O)c3ccc(Oc4ccc(C(=O)c5ccc(Oc6ccc7c(c6)C(=O)N(*)C7=O)cc5)cc4)cc3C2=O)c1 (repeat unit),239.00 °C
6,*Oc1ccc(Oc2ccc(C(=O)c3cccc(NC(=O)CCCCCCCCC(=O)Nc4cccc(C(=O)c5ccc(*)cc5)c4)c3)cc2)cc1 (repeat unit),144.00 °C
7,*CCN(CCN1C(=O)c2ccc(C(c3ccc4c(c3)C(=O)N(*)C4=O)(C(F)(F)F)C(F)(F)F)cc2C1=O)c1ccc(/N=N/c2ccc(C=O)cc2)cc1 (repeat unit),170.00 °C
8,*=Nc1cccc(/N=C(\c2ccccc2)c2ccc(C(=*)c3ccccc3)cc2)c1 (repeat unit),179.00 °C
9,*c1ccc(-c2nc3ccc(S(=O)(=O)c4ccc5nc(*)c(-c6ccccc6)nc5c4)cc3nc2-c2ccccc2)cc1 (repeat unit),345.00 °C
10,*/C=C/c1ccc(/C=C/c2ccc3c(c2)C(CCCCCCOc2ccc4ccc(=O)oc4c2)(CCCCCCOc2ccc4ccc(=O)oc4c2)c2cc(*)ccc2-3)cc1 (repeat unit),104.00 °C
11,*CCCCCCCCCCCCCCCCCCNC(=O)Cc1ccc(CC(=O)N*)cc1 (repeat unit),78.00 °C
12,*c1cn(*)c2ccccc12 (repeat unit),65.00 °C
13,*c1ccc(-c2ccc(N3C(=O)c4ccc(S(=O)(=O)c5ccc6c(c5)C(=O)N(*)C6=O)cc4C3=O)cc2C(F)(F)F)c(C(F)(F)F)c1 (repeat unit),320.00 °C
14,*c1ccc(Oc2ccc(C3(c4ccc(Oc5ccc(N6C(=O)c7ccc(Oc8ccc(C9(c%10ccc(Oc%11ccc%12c(c%11)C(=O)N(*)C%12=O)cc%10)CCCCCCCCCCC9)cc8)cc7C6=O)cc5)cc4)CC4CCC3C4)cc2)cc1 (repeat unit),259.00 °C
15,*O[Si](C)(C)c1ccc([Si](*)(C)C)cc1 (repeat unit),-18.00 °C
16,*C(=O)Nc1ccc(C(=O)Nc2ccc(NC(=O)c3ccc4[nH]c(-c5cccc(-c6nc7cc(*)ccc7[nH]6)c5)nc4c3)cc2)cc1 (repeat unit),322.00 °C
17,*C(=O)Nc1cccc(NC(=O)c2ccc3[nH]c(-c4cc(-c5nc6cc(*)ccc6[nH]5)cc(N5C(=O)c6ccccc6C5=O)c4)nc3c2)c1 (repeat unit),304.00 °C
18,*CCCCC(=O)NNC(=O)c1ccc(C(=O)NNC(=O)CCCCOc2ccc(O*)c(C)c2)cc1 (repeat unit),150.00 °C
19,*c1ccc2oc(-c3ccc(C(c4ccccc4)(c4ccc(-c5nc6cc(C(*)(C(F)(F)F)C(F)(F)F)ccc6o5)cc4)C(F)(F)F)cc3)nc2c1 (repeat unit),310.00 °C
20,*c1ccc(Oc2ccc(C(c3ccc(Oc4ccc(-n5c(=O)c6cc7c(=O)n(*)c(=O)c7cc6c5=O)cc4C(F)(F)F)cc3)(C(F)(F)F)C(F)(F)F)cc2)c(C(F)(F)F)c1 (repeat unit),253.00 °C

row,SMILES,glass transition temperature
1,*CC(*)OC(=O)C1CCCC1 (repeat unit),36.00 °C
2,*Oc1ccc(Oc2cccc(C(=O)Oc3ccc(OC(=O)c4cccc(*)c4)cc3)c2)cc1 (repeat unit),119.00 °C
3,*Oc1ccc(NC(=O)c2ccc(Oc3ccc(C(C)(C)c4ccc(C(C)(C)c5ccc(Oc6ccc(C(=O)Nc7ccc(*)cc7)cc6)cc5)cc4)cc3)cc2)cc1 (repeat unit),174.00 °C
4,*CCCCCCOC(=O)C(CCCCP(=O)(O)O)C(=O)OCCCCCCOc1ccc(-n2on2-c2ccc(O*)cc2)cc1 (repeat unit),19.00 °C
5,*O[Si](*)(C([2H])([2H])[2H])C([2H])([2H])[2H] (repeat unit),-125.00 °C
6,*C(=O)Nc1ccc(Oc2ccc(Oc3ccc(NC(=O)c4ccc5c(c4)C(=O)N(c4ccc(Oc6ccc(N7C(=O)c8ccc(*)cc8C7=O)cc6)cc4)C5=O)cc3)cc2)cc1 (repeat unit),260.00 °C
7,*CC(*)C(=O)OCCOCC1(CC)COC1 (repeat unit),-16.00 °C
8,*c1cccc(Oc2cccc(Oc3cccc(N4C(=O)c5c(c(-c6ccccc6)c(-c6ccc(Oc7ccc(-c8c(-c9ccccc9)c9c(c(-c%10ccccc%10)c8-c8ccccc8)C(=O)N(*)C9=O)cc7)cc6)c(-c6ccccc6)c5-c5ccccc5)C4=O)c3)c2)c1 (repeat unit),261.00 °C
9,*CCN(*)C (repeat unit),-31.00 °C
10,*c1cccc(-c2nc3cc(-c4ccc5nc(*)c(-c6ccccc6)nc5c4)ccc3nc2-c2ccccc2)c1 (repeat unit),319.00 °C
11,*c1ccc2c(c1)C(=O)N(c1cccc(Oc3ccc(N4C(=O)c5ccc(C(*)(C(F)(F)F)C(F)(F)F)cc5C4=O)cc3)c1)C2=O (repeat unit),260.00 °C
12,*CC(*)C (repeat unit) [Poly(propylene)],-24.6 ± 21 °C
13,*CCN(CCOC(=O)Nc1ccc(C)c(NC(=O)O*)c1)c1ccc(/C=C2/NC(=O)NC2=O)cc1 (repeat unit),178.00 °C
14,*Oc1c(C)cc(C(C)(C)c2cc(C)c(ON3C(=O)c4ccc(Oc5ccc(C6(c7ccc(Oc8ccc9c(c8)C(=O)N(*)C9=O)cc7)CCC(C(C)(C)C)CC6)cc5)cc4C3=O)c(C)c2)cc1C (repeat unit),248.00 °C
15,*C(=O)c1ccc2c(c1)C(=O)N(c1cccc(Cc3ccc(Cc4cccc(N5C(=O)c6ccc(*)cc6C5=O)c4)cc3)c1)C2=O (repeat unit),240.00 °C
16,*/C(Cl)=C(/*)c1ccccc1 (repeat unit),215.00 °C
17,*c1cccc(CCCOc2cccc(N3C(=O)c4cccc(-c5ccc6c(c5)C(=O)N(*)C6=O)c4C3=O)c2)c1 (repeat unit),178.00 °C
18,*OC1C(COCC)OC(*)C(OCC)C1OCC (repeat unit),131.2 °C
19,*CC(*)(C)C(=O)OCCCCCOc1ccc2cc(C(=O)Oc3ccccc3)ccc2c1 (repeat unit),48.00 °C
20,*c1ccc(Oc2ccc(C(c3ccc(Oc4ccc(N5C(=O)c6ccc(Oc7c(C)cc(C(C)(C)c8cc(C)c(Oc9ccc%10c(c9)C(=O)N(*)C%10=O)c(C)c8)cc7C)cc6C5=O)cc4)cc3)(C(F)(F)F)C(F)(F)F)cc2)cc1 (repeat unit),244.00 °C

row,SMILES,glass transition temperature
1,*c1ccc(Oc2ccc(C(c3ccc(Oc4ccc(N5C(=O)c6ccc(-c7ccc8c(c7)C(=O)N(*)C8=O)cc6C5=O)cc4)cc3)(C(F)(F)F)C(F)(F)F)cc2)cc1 (repeat unit),249.50 ± 18 °C
2,*C(=O)Nc1cccc(Oc2ccc(C(=O)c3ccc(Oc4cccc(NC(=O)c5ccc(*)nc5)c4)cc3)cc2)c1 (repeat unit),154.00 °C
3,*CCCCCCOC(=O)NCCCCNC(=O)O* (repeat unit),16.00 °C
4,*CC1CCC(CNC(=O)CCCCCCCCCCC(=O)N*)CC1 (repeat unit),85.00 °C
5,*c1cccc(P(=O)(c2ccc(C(F)(F)F)cc2)c2cccc(-n3c(=O)c4c(-c5cc(C(F)(F)F)cc(C(F)(F)F)c5)c5c(=O)n(*)c(=O)c5c(-c5cc(C(F)(F)F)cc(C(F)(F)F)c5)c4c3=O)c2)c1 (repeat unit),311.00 °C
6,*CC(*)(CC(=O)OCCOCCOCCOC)C(=O)OCCOCCOCCOC (repeat unit),-19.00 °C
7,*/C=C(/*)c1c(F)c(F)c(CCCC)c(F)c1F (repeat unit),110.00 °C
8,*CC(*)C(=O)Oc1c(Cl)c(Cl)c(Cl)c(Cl)c1Cl (repeat unit),145.00 °C
9,*Nc1cc(NC(=O)c2ccc(C(*)=O)cc2)cc(-c2nnc(-c3ccccn3)o2)c1 (repeat unit),230.00 °C
10,*Oc1ccc(S(=O)(=O)c2ccc(Oc3ccc(C(C)(C)c4ccc(*)c(C(O)(C(F)(F)F)C(F)(F)F)c4)cc3C(O)(C(F)(F)F)C(F)(F)F)cc2)cc1 (repeat unit),167.00 °C
11,*Oc1ccc(C(c2ccc(OC(=O)OC3C(C)(C)C(OC(*)=O)C3(C)C)cc2)(C(F)(F)F)C(F)(F)F)cc1 (repeat unit),142.00 °C
12,*C(=O)Nc1ccc(S(=O)(=O)c2ccc(NC(=O)c3ccc4c(c3)C(=O)N(c3cc(-c5nc6ccccc6o5)cc(N5C(=O)c6ccc(*)cc6C5=O)c3)C4=O)cc2)cc1 (repeat unit),367.00 °C
13,*CC(*)c1ccc(Cl)cc1 (repeat unit) [Poly(4-chlorostyrene)],119.92 ± 5.3 °C
14,*CC(F)(F)C(F)(F)C(F)(F)COC(=O)c1cccc(C(F)(F)C(F)(F)C(F)(F)c2cccc(C(=O)O*)c2)c1 (repeat unit),24.00 °C
15,*/C=[CH]/[Ge]([*])([c]1ccccc1)[c]1ccccc1 (repeat unit),-36.00 °C
16,*Oc1cc(Oc2ccc(C(C)(C)c3ccc(*)cc3)cc2)cc([N+](=O)[O-])c1 (repeat unit),150.00 °C
17,*c1cc(N2C(=O)c3ccc(Oc4cccc5c(Oc6ccc7c(c6)C(=O)N(*)C7=O)cccc45)cc3C2=O)cc(C(F)(F)F)c1 (repeat unit),250.00 °C
18,*CC(*)C(=O)OCCOC(=O)c1cc([N+](=O)[O-])cc([N+](=O)[O-])c1 (repeat unit),60.80 °C
19,*c1cccc(OCCCCCCCCCOc2cccc(N3C(=O)c4ccc(-c5cccc6c5C(=O)N(*)C6=O)cc4C3=O)c2)c1 (repeat unit),134.00 °C
20,*c1ccc2c(c1)C(=O)N(c1ccc(C3(c4ccc(N5C(=O)c6ccc(C(*)(C(F)(F)F)C(F)(F)F)cc6C5=O)c(F)c4)c4ccccc4-c4ccccc43)cc1F)C2=O (repeat unit),352.00 °C
